Measured values published in the NIST ThermoML archive (doi:10.1021/je034096z).

Settings: Liquid

CC(O)CO (stereo not given) [1,2-propanediol]
Settings | vapor or sublimation pressure [kPa]
393.22 K | 8.198
393.25 K | 8.207
398.09 K | 10.23
403.14 K | 12.77
403.15 K | 12.77
408.3 K | 15.89
413.1 K | 19.36
413.15 K | 19.39
418.16 K | 23.68
423.15 K | 28.69
423.26 K | 28.81

COCC(C)O (stereo not given) [1-methoxy-2-propanol]
Settings | vapor or sublimation pressure [kPa]
347.62 K | 19.25
352.64 K | 23.74
353.15 K | 24.25
357.89 K | 29.35
362.93 K | 35.72
363.15 K | 36.03
368.03 K | 43.29
373.15 K | 52.16
373.22 K | 52.3
378.01 K | 61.89

CN1CCCC1=O [N-methylpyrrolidone]
Settings | vapor or sublimation pressure [kPa]
352.27 K | 1.285
352.48 K | 1.297
353.15 K | 1.344
359.26 K | 1.823
363.15 K | 2.193
363.36 K | 2.217
368.27 K | 2.777
373.09 K | 3.444
373.15 K | 3.456
377.86 K | 4.229

CCCCCCOCCOCCO [2-(2-hexyloxyethoxy)ethanol]
Settings | vapor or sublimation pressure [kPa]
402.96 K | 1.111
403.01 K | 1.117
403.15 K | 1.124
408.02 K | 1.435
413.15 K | 1.831
413.2 K | 1.835
418.17 K | 2.293
422.87 K | 2.825
423.15 K | 2.858
